Measurements from patent EP0428132A1, “Pradimicin derivatives” (Bristol-Myers Squibb Company, priority 1989, dated 1991).
Converted amounts (≈) assume the structure as drawn. Structures can show the parent of a compound that is named as a salt. Where two headings read alike, the source gives them in different places. Marks after values point to notes of the source that are not given here.

Legend:
[1] = system: Candida tropicalis A25812; assay: In vitro antifungal activity, serial agar dilution method (Table 1a); type: cell-based
Experimental: (§1) The inoculum size was adjusted to 10⁶ cells/ml, and a volume of approximately 0.003 ml of fungal suspension was applied to the surface of the antibiotic containing agar plates with a multiinoculator. After incubation, the lowest concentration of antibiotic causing virtually complete inhibition of fungal growth was determined as the minimum inhibitory concentration (MIC).

Candida albicans A9540 [2] = assay: as above; type: cell-based
Experimental: as §1

[3] = system: Candida pseudotropicalis A25802; assay: as above; type: cell-based; conditions: Kluyveromyces marxianus, YM agar (pH 7.0, Difco), 30°C for 2 days (yeast) or 4 days (filamentous fungi), read-out: MICs, Candida pseudotropicalis A25802
Experimental: as §1

[4] = system: Candida paratropicalis A25825; assay: as above; type: cell-based
Experimental: as §1

[5] = system: Saccharomyces cerevisiae A25803; assay: as above; type: cell-based; conditions: YM agar (pH 7.0, Difco), 30°C for 2 days (yeast) or 4 days (filamentous fungi), read-out: MICs, Saccharomyces cerevisiae A25803
Experimental: as §1

[6] = system: Microsporum canis WW10218; assay: as above; type: cell-based; conditions: WW10218, pH 7, read-out: MICs, Microsporum canis WW10218
Experimental: as §1

[7] = system: Candida tropicalis A25809; assay: as above; type: cell-based; conditions: YM agar (pH 7.0, Difco), 30°C for 2 days (yeast) or 4 days (filamentous fungi), read-out: MICs, Candida tropicalis A25809
Experimental: as §1

[8] = system: Trichophyton mentagrophytes A26771; assay: as above; type: cell-based
Experimental: as §1

[9] = system: Cryptococcus neoformans A15053; assay: as above; type: cell-based
Experimental: as §1

Candida albicans A25578 = assay: as above; type: cell-based
Experimental: as §1

[10] = system: Microsporum gypseum WW1107; assay: as above; type: cell-based; conditions: Nannizzia gypsea, YM agar (pH 7.0, Difco), 30°C for 2 days (yeast) or 4 days (filamentous fungi), read-out: MICs, Microsporum gypseum WW1107
Experimental: as §1

[11] = system: Trichophyton rubrum A26761; assay: as above; type: cell-based; conditions: A26761, pH 7, read-out: MICs, Trichophyton rubrum A26761
Experimental: as §1

Candida albicans A9540 [12] = assay: Intravenous Candida albicans infection mouse model, Table 2 part B; type: in vivo, mice
Experimental: Several compounds were also evaluated in an intravenous Candida albicans […] infection mouse model. The test organism was suspended in saline approximately 10 times the median lethal dose of the fungus (10⁶ cells/mouse) were used to infect intravenously male ICR mice weighing 20 to 24 g. Groups of five mice at each dose level were given the test compounds intravenously or intramuscularly. The 50% protective dose (PD₅₀) was calculated from survival rates recorded 20 or 21 days after the fungal challenge. […]

[13] = Water solubility, protocol I (PBS, HPLC); type: physicochemical; conditions: Method I: PBS without CaCl₂ and MgCl₂.6H₂O
Experimental: The supernatant (2 µL) was analyzed by HPLC using the conditions specified for each compound in the Experimental Section. […] When not soluble, an additional amount of PBS (x µL) was added, sonicated, and centrifuged. When visibly soluble, the solution (2 µL) was injected to HPLC and the peak area was used for the known concentration of the sample.

M. gypseum A22810 = assay: In vitro antifungal activity, serial agar dilution method (Table 1a, footnote strain 1); type: cell-based, Microsporum gypseum; conditions: Nannizzia gypsea, strain per footnote **1, YM agar (pH 7.0, Difco), 30°C for 2 days (yeast) or 4 days (filamentous fungi), read-out: MICs, M. gypseum A22810
Experimental: as §1

T. rubrum A24195 = assay: In vitro antifungal activity, serial agar dilution method (Table 1a, footnote strain 2); type: cell-based; conditions: Trichophyton rubrum, A24195, pH 7, read-out: MICs, T. rubrum A24195
Experimental: as §1

T. mentagrophytes A22838 = assay: In vitro antifungal activity, serial agar dilution method (Table 1a, footnote strain 3); type: cell-based; conditions: Trichophyton mentagrophytes, strain per footnote **3, YM agar (pH 7.0, Difco), 30°C for 2 days (yeast) or 4 days (filamentous fungi), read-out: MICs, T. mentagrophytes A22838
Experimental: as §1

M. canis A26834 = assay: In vitro antifungal activity, serial agar dilution method (Table 1a, footnote strain 5); type: cell-based; conditions: Microsporum canis, A26834, pH 7, read-out: MICs, M. canis A26834
Experimental: as §1

M. gypseum A26835 = assay: In vitro antifungal activity, serial agar dilution method (Table 1a, footnote strain 4); type: cell-based, Microsporum gypseum; conditions: Nannizzia gypsea
Experimental: as §1

M. canis A22494 = assay: In vitro antifungal activity, serial agar dilution method (Table 1a, footnote strain 6); type: cell-based; conditions: Microsporum canis, A22494, pH 7, read-out: MICs, M. canis A22494
Experimental: as §1

[14] = A25812, YM agar (pH 7.0, Difco), 30°C for 2 days (yeast) or 4 days (filamentous fungi), read-out: MICs, Candida tropicalis A25812
[15] = A9540, YM agar (pH 7.0, Difco), 30°C for 2 days (yeast) or 4 days (filamentous fungi), read-out: MICs, Candida albicans A9540
[16] = YM agar (pH 7.0, Difco), 30°C for 2 days (yeast) or 4 days (filamentous fungi), read-out: MICs, Candida paratropicalis A25825
[17] = A26771, YM agar (pH 7.0, Difco), 30°C for 2 days (yeast) or 4 days (filamentous fungi), read-out: MICs, Trichophyton mentagrophytes A26771
[18] = A15053, YM agar (pH 7.0, Difco), 30°C for 2 days (yeast) or 4 days (filamentous fungi), read-out: MICs, Cryptococcus neoformans A15053
[19] = A25578, YM agar (pH 7.0, Difco), 30°C for 2 days (yeast) or 4 days (filamentous fungi), read-out: MICs, Candida albicans A25578
[20] = Part B: route IV, at 1 and 3.5 hrs after infection and twice on the following day, 21 days after fungal challenge, method of Spearman-Karber, male ICR mice

Compound	MIC [1, 14] [µg/mL]	MIC (Candida albicans A9540 [2]; [15]) [µg/mL]	MIC [3] [µg/mL]	MIC [4, 16] [µg/mL]	MIC [5] [µg/mL]	MIC [6] [µg/mL]	MIC [7] [µg/mL]	MIC [8, 17] [µg/mL]	MIC [9, 18] [µg/mL]	MIC (Candida albicans A25578; [19]) [µg/mL]	MIC [10] [µg/mL]	MIC [11] [µg/mL]	PD₅₀ (Candida albicans A9540 [12]; mouse, in vivo)	solubility [13] [µg/mL]	further results
COc1cc(O)c2c(c1)C(=O)c1c(cc3c(c1O)-c1c(cc(C)c(C(=O)N[C@H](C)C(=O)O)c1O)[C@H](O[C@@H]1O[C@H](C)[C@H](N(C)CC(=O)O)[C@H](O)[C@H]1O)[C@H]3O)C2=O [Ex. 4, N-carboxymethyl pradimicin B]	3.2 (≈ 4.17 µM)	3.2 (≈ 4.17 µM)	1.6 (≈ 2.09 µM)	3.2 (≈ 4.17 µM)	0.8 (≈ 1.04 µM)	6.3 (≈ 8.22 µM)	1.6 (≈ 2.09 µM)	12.5 (≈ 16.3 µM)	1.6 (≈ 2.09 µM)	1.6 (≈ 2.09 µM)	25 (≈ 32.6 µM)	12.5 (≈ 16.3 µM)	>50** mg/kg	> 10000	–
COc1cc(O)c2c(c1)C(=O)c1c(cc3c(c1O)-c1c(cc(C)c(C(=O)N[C@H](C)C(=O)O)c1O)[C@H](O[C@@H]1O[C@H](C)[C@H](N(C)CC(N)=O)[C@H](O)[C@H]1O)[C@H]3O)C2=O [Ex. 5, N-(carbamoylmethyl) pradimicin B]	3.2 (≈ 4.18 µM)	3.2 (≈ 4.18 µM)	0.8 (≈ 1.04 µM)	3.2 (≈ 4.18 µM)	0.8 (≈ 1.04 µM)	1.6 (≈ 2.09 µM)	0.8 (≈ 1.04 µM)	1.6 (≈ 2.09 µM)	0.8 (≈ 1.04 µM)	0.8 (≈ 1.04 µM)	3.2 (≈ 4.18 µM)	1.6 (≈ 2.09 µM)	–	> 4000	PD₅₀ (Candida albicans A9540 [12]; [20]): >50** mg/kg
COc1cc(O)c2c(c1)C(=O)c1c(cc3c(c1O)-c1c(cc(C)c(C(=O)N[C@H](C)C(=O)O)c1O)[C@H](O[C@@H]1O[C@H](C)[C@H](N(C)C(=O)CN)[C@H](O)[C@H]1O)[C@H]3O)C2=O [Ex. 14, N-(glycyl) pradimicin B formate salt]	3.2	3.2	1.6	3.2	1.6	–	3.2	–	1.6	3.2	–	–	–	–	MIC (M. gypseum A22810): 3.2 µg/mL; MIC (T. rubrum A24195): 1.6 µg/mL; MIC (T. mentagrophytes A22838): 1.6 µg/mL
CNC(=O)N(C)[C@@H]1[C@H](O)[C@@H](O)[C@H](O[C@H]2c3cc(C)c(C(=O)N[C@H](C)C(=O)O)c(O)c3-c3c(cc4c(c3O)C(=O)c3cc(OC)cc(O)c3C4=O)[C@@H]2O)O[C@@H]1C [Ex. 18, N-(N-methylcarbamoyl) pradimicin B]	–	–	3.2 (≈ 4.18 µM)	–	–	–	–	–	–	–	–	> 50	–	4000 (≈ 5220 µM)	MIC ([1]; A25812, pH 7, read-out: MICs, Candida tropicalis A25812): 25 µg/mL (≈ 32.6 µM); MIC (Candida albicans A9540 [2]; A9540, pH 7, read-out: MICs, Candida albicans A9540): 25 µg/mL (≈ 32.6 µM); MIC ([4]; pH 7, read-out: MICs, Candida paratropicalis A25825): 25 µg/mL (≈ 32.6 µM); MIC ([8]; A26771, pH 7, read-out: MICs, Trichophyton mentagrophytes A26771): > 50 µg/mL; MIC ([9]; A15053, pH 7, read-out: MICs, Cryptococcus neoformans A15053): > 50 µg/mL; MIC (Candida albicans A25578; A25578, pH 7, read-out: MICs, Candida albicans A25578): 25 µg/mL (≈ 32.6 µM); MIC (M. canis A26834): > 50 µg/mL; MIC (M. gypseum A26835; A26835, pH 7, read-out: MICs, M. gypseum A26835): > 50 µg/mL
COc1cc(O)c2c(c1)C(=O)c1c(cc3c(c1O)-c1c(cc(C)c(C(=O)N[C@H](C)C(=O)O)c1O)[C@H](O[C@@H]1O[C@H](C)[C@H](N(C)C(=O)[C@@H](N)CCC(=O)O)[C@H](O)[C@H]1O)[C@H]3O)C2=O [Ex. 20, N-(L-glutamyl) pradimicin B formate salt]	25	25	6.3	25	6.3	–	–	–	50	12.5	–	–	–	–	MIC (M. gypseum A22810): 12.5 µg/mL; MIC (T. rubrum A24195): 12.5 µg/mL; MIC (M. canis A22494): 12.5 µg/mL; MIC (T. mentagrophytes A22838): 12.5 µg/mL
C=CCN(C)[C@@H]1[C@H](O)[C@@H](O)[C@H](O[C@H]2c3cc(C)c(C(=O)N[C@H](C)C(=O)O)c(O)c3-c3c(cc4c(c3O)C(=O)c3cc(OC)cc(O)c3C4=O)[C@@H]2O)O[C@@H]1C [Ex. 21, N-(Allyl) pradimicin B]	6.3 (≈ 8.41 µM)	3.2 (≈ 4.27 µM)	0.8 (≈ 1.07 µM)	6.3 (≈ 8.41 µM)	0.8 (≈ 1.07 µM)	3.2 (≈ 4.27 µM)	1.6 (≈ 2.14 µM)	3.2 (≈ 4.27 µM)	1.6 (≈ 2.14 µM)	0.8 (≈ 1.07 µM)	12.5 (≈ 16.7 µM)	3.2 (≈ 4.27 µM)	>50 mg/kg	2000 (≈ 2670 µM)	–
C#CCN(C)[C@@H]1[C@H](O)[C@@H](O)[C@H](O[C@H]2c3cc(C)c(C(=O)N[C@H](C)C(=O)O)c(O)c3-c3c(cc4c(c3O)C(=O)c3cc(OC)cc(O)c3C4=O)[C@@H]2O)O[C@@H]1C [Ex. 23, N-(Propargyl) pradimicin B]	50 (≈ 67 µM)	50 (≈ 67 µM)	1.6 (≈ 2.14 µM)	> 50	0.8 (≈ 1.07 µM)	25 (≈ 33.5 µM)	1.6 (≈ 2.14 µM)	25 (≈ 33.5 µM)	1.6 (≈ 2.14 µM)	1.6 (≈ 2.14 µM)	50 (≈ 67 µM)	25 (≈ 33.5 µM)	>50 mg/kg	500 (≈ 670 µM)	–
COc1cc(O)c2c(c1)C(=O)c1c(cc3c(c1O)-c1c(cc(C)c(C(=O)N[C@H](C)C(=O)O)c1O)[C@H](O[C@@H]1O[C@H](C)[C@H](N(C)Cc4ccccc4)[C@H](O[C@@H]4OC[C@@H](O)[C@H](O)[C@H]4O)[C@H]1O)[C@H]3O)C2=O [Ex. 24, N-(Benzyl) pradimicin A]	> 50	> 50	12.5 (≈ 13.4 µM)	> 50	–	–	–	3.2 (≈ 3.44 µM)	1.6 (≈ 1.72 µM)	> 50	–	3.2 (≈ 3.44 µM)	–	–	MIC (M. canis A26834): 25 µg/mL (≈ 26.9 µM); MIC (M. gypseum A26835; A26835, strain per footnote **4, YM agar (pH 7.0, Difco), 30°C for 2 days (yeast) or 4 days (filamentous fungi), read-out: MICs, M. gypseum A26835): 50 µg/mL (≈ 53.7 µM)
CN[C@@H]1[C@H](O)[C@@H](O)[C@H](O[C@H]2c3cc(C)c(C(=O)N[C@H](C)C(=O)O)c(O)c3-c3c(cc4c(c3O)C(=O)c3cc(OC)cc(O)c3C4=O)[C@@H]2O)O[C@@H]1C [Pradimicin B, reference compound]	3.2 (≈ 4.52 µM)	3.2 (≈ 4.52 µM)	0.8 (≈ 1.13 µM)	3.2 (≈ 4.52 µM)	0.8 (≈ 1.13 µM)	3.2 (≈ 4.52 µM)	0.8 (≈ 1.13 µM)	3.2 (≈ 4.52 µM)	0.8 (≈ 1.13 µM)	1.6 (≈ 2.26 µM)	12.5 (≈ 17.6 µM)	3.2 (≈ 4.52 µM)	–	70 (≈ 98.8 µM)	PD₅₀ (Candida albicans A9540 [12]; Part B: route IM, at 1 and 3.5 hrs after infection and twice on the following day, 21 days after fungal challenge, method of Spearman-Karber, male ICR mice): >50 mg/kg; PD₅₀ (Candida albicans A9540 [12]; [20]): 32 mg/kg
